This is an account of results in patent US4943581A, “Isoquinolinesulfonamides” (Hokuriku Pharmaceutical Co., Ltd., priority 1988, dated 1990).

Counter-ions that a name gives are not always drawn.

Test [1] deals with smooth muscle of the blood vessel (superior mesenteric artery). Description: Relaxation effect on smooth muscle of blood vessel (spiral specimen of superior mesenteric artery contracted with 20 mM KCl). The conditions noted are these: Oryctolagus cuniculus; concentration giving 50% relaxation; contraction induced by 20 mM KCl taken as 100%; 37°±0.5° C.; rabbit superior mesenteric artery; read-out: ED50 (the source's name). As to the method: The extracted blood vessels were cut in the usual way into the form of spirals, and a specimen of 1.5-2.5 mm in width and 20-30 mm in length was formed. The spiral specimen was suspended in 20 ml organ bath comprising Krebs-Henseleit's solution, after which a tension of 2.0-0.5 g was loaded. The nutrient solution was warmed at 37°±0.5° C. and ventilated by mixed gas of 95% oxygen and 5% carbon dioxide. The lower end was fixed, whereas the upper end was attached to a force-displacement transducer (SB-1T) manufactured by Nihon Koden Company. The change of tension was recorded isometrically. The specimen was suspended for at least 60 minutes before the test was begun, and the nutrient solution was exchanged every 15 minutes to conduct the experiment in the meantime.
The relaxation effect upon the smooth muscle of the blood vessel was tested. Previously, the spiral specimen had been contracted with 20 mM of KCl and maintained at a certain tension; thereafter the test agent was added cumulatively. Contraction induced by 20 mM KCl was taken as 100% and the relaxation effect of the test agent was represented by ED50 which was the concentration of the agent at which only 50% of the muscles remained shrunken.

In test [2] the target is T1, myosin light-chain kinase (Gallus gallus, UniProt P11799).
T1 construct: myosin light chain kinase (prepared from the smooth muscles of chicken gizzard); from tissue; host or cells: smooth muscle of chicken gizzard (kinase); cattle brain (calmodulin)
Description: Inhibition of myosin light-chain kinase (32P incorporation from [γ-32P] ATP into myosin light chain). It counts as biochemical. Conditions: enzymatic activity depression of 50%; chicken gizzard; 200 μM CaCl2, 80 ng calmodulin, pH 7.0, 30 °C. As to the method:
A myosin light chain of the smooth muscles of chicken gizzard was used as a substrate and the amount of radioactive phosphoric acid incorporated from [γ-32P] ATP into the substrate-protein was measured for a determination of the activity of the enzyme. The reaction solution, in an amount of 200 μl as a whole, was constituted from 25 mM of Tris-HCl(pH 7.0), 10 mM MgCl2, 40 μg of myosin light chain (obtained by preparing myosin from the smooth muscle of chicken gizzard followed by guanidine denaturization), 200 μM of CaCl2, 80 ng of calmodulin (prepared from cattle brain), myosin light chain kinase (prepared from the smooth muscles of chicken gizzard), and agents of various concentrations. The reaction was started by the addition of 20 μl of 100 μM [γ-32P] ATP at 30 ° C., and stopped by the addition of 0.5 ml of 20% TCA. After the reaction was stopped, 3 ml of 5% TCA and 0.1 ml of 1 mg/ml albumin solution were added into the reaction mixture, the resulting solution was centrifuged, and the obtained acid-insoluble protein was fixed on the bottom of a test tube. Further, the supernatant was removed, 3 ml of 5% TCA was added into the residue, and the solution was centrifuged. […] The precipitated protein was dissolved with 2 ml of 1 N NaOH, transferred to a vial containing about 10 ml of water, and measured for Cherenkov effect by a liquid scintillation counter. […]

T1 sequence (P11799 935-1906): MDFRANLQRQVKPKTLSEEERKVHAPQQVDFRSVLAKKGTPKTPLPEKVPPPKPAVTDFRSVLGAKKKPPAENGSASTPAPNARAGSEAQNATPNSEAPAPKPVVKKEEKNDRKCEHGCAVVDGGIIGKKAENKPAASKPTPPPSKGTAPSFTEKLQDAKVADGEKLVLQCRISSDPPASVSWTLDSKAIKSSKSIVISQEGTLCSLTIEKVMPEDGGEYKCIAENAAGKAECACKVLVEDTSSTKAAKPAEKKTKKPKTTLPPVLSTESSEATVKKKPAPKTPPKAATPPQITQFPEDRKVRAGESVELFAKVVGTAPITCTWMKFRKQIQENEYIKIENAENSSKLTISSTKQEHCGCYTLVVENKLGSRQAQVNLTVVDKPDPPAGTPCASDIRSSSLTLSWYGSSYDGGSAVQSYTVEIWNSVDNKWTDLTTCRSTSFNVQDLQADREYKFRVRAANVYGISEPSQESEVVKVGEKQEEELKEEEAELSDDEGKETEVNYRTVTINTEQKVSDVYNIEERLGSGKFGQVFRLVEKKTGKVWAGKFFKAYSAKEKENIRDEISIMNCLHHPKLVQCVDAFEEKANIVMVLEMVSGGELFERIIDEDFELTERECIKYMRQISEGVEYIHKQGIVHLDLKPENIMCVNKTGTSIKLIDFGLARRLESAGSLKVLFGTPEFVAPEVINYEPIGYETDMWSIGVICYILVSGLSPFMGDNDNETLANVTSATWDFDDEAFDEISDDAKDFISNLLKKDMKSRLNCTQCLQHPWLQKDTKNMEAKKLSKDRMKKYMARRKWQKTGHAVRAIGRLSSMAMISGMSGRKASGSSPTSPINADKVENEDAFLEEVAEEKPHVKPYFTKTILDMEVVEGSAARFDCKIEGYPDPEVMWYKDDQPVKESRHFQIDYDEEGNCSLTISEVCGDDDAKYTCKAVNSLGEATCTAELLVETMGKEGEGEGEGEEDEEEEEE

What is called IC50 is the concentration that inhibits the measured activity by half. High values mean lower potency, low ones higher potency. `NCCNS(=O)(=O)c1ccc(Cl)c2ccncc12` [Example 1, N-(2-Aminoethyl)-5-chloroisoquinoline-8-sulfonamide 2 hydrochloride]: the EC50 in test [1] was found to be 32 µM. Moreover, half-maximal inhibition in test [2] (IC50) was put at 31 µM.
